The results in this text go back to patent US6420363B1, “Mono- or polyenic carboxylic acid derivatives” (Eisai Co., Ltd., priority 1994, dated 2002).

A word on the IC50: it is the midpoint of a concentration-inhibition curve. A higher IC50 goes with weaker potency in that assay. In general, melting point refers to the temperature of the solid-liquid transition.

One data set concerns HL60 cells. Briefly: Antagonism against all-trans retinoic acid in inducing the differentiation of HL60 cells (CD11b-positive cells, flow cytometry). It is filed as cell-based. The following applies: Homo sapiens, HL-60, 120 h; CD11b-positive cells induced by 10 nM all-trans retinoic acid, 5 days. The text has this: Antagonism Against All-trans Retinoic Acid in Inducing the Differentiation of HL60 Cells
It is known that human promyelocytic leukemia cells HL60 differentiate into granulocyte-like cells in the presence of all-trans retinoic acid (Breitman, T., Selonick, S., and Collins, S., Proc. Natl. Acad. Sci. U.S.A. 77, 2936(1980)). In general, cells allow specific differentiation antigens to be expressed on the cell surfaces when they have achieved differentiation. When HL60 cells differentiate into granulocyte-like cells, CD11b which is a granulocyte/monocyte discriminating antigen is expressed on the cell surfaces (Fontana, J A., Reppuci, A., Durham, J P., and Mirand, D., Cancer Res. 46, 2469-2473 (1986)). The antagonism of a test compound against the differentiation into granulocyte-like cells induced by all-trans retinoic acid was studied by utilizing this phenomenon.
HL60 cells were cultured and maintained in a medium prepared by adding 10% of inactivated fetal bovine serum, 1 mM of sodium pyridinecarboxylate, 50 μM of β-mercaptoethanol, 100 IU/ml of penicillin and 100 μg/ml of streptomycin to RPMI1640 (culture medium formulated by Rosewell Park Memorial Institute).
An HL60 cell suspension (1×10^5 cells/ml) was put in a 48-well plate in an amount of one ml per unit well, followed by the addition of all-trans retinoic acid in a concentration of […] and a retinoid antagonist in various concentrations. The resulting mixtures were cultured in a 5% CO2-air incubator for 5 days. After the completion of the culture, the cells in each well was recovered into a test tube, followed by the addition of an FITC-labeled monoclonal antibody against CD11b (which is a specific antigen against glanulocytes and monocytes). The resulting cell suspension was fixed with 0.2% paraformaldehyde. The fixed cell suspension thus obtained was examined for the content of CD11b-positive cells in the HL60 cell population of each well by flow cytometry (Miller, L. J., Schwarting, R., and Springer, T A., J. Immunol. 137, 2891-2900 (1986)). The compounds which will be described below lowered the content of CD11b-positive cells induced by 10 nM all-trans retinoic acid dependently on the concentration.
(Flow cytometry measures light scatter and fluorescence of single cells or particles in a stream.)

Data set [1] has as its target T1, all-trans retinoic acid receptors (RAR) (Homo sapiens, UniProt P10276).
T1 construct: determined by the use of the nuclear extract fraction of HL60; endogenous in cells; host or cells: HL60 human promyelocytic leukemia cells, nuclear extract fraction
T1 sequence (P10276 1-462): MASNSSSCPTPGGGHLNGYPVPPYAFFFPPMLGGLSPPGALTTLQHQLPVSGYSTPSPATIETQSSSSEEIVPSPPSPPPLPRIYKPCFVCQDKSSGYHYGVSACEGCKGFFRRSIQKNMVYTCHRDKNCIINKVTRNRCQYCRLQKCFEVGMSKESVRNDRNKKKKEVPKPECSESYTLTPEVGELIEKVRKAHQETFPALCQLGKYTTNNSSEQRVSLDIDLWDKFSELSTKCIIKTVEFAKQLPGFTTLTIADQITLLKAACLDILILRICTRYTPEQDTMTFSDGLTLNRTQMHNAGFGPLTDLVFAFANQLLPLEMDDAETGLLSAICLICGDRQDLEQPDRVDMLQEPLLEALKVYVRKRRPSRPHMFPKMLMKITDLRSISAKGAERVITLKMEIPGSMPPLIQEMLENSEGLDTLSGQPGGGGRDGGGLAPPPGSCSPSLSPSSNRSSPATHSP
As to the kind of experiment: Receptor binding assay using nuclear extract fraction of human promyelocytic leukemia cell HL60. The following applies: inhibition of specific binding of 3H-all-trans retinoic acid, 4° C., 16 hours. As to the method:
Receptor Binding Assay Using Human Promyelocytic Leukemia Cell HL60
It is known that all-trans retinoic acid receptors (retinoic acid receptor: RAR) are is present in the nuclei of HL60 cells (Clara Nervi et al., Proc. Natl. Acad. Sci. U.S.A. 86, 5854(1989)). Therefore, the specific binding of all-trans retinoic acid for RAR was determined by the use of the nuclear extract fraction of HL60, and each test compound was examined for the ability to bind RAR by determining the inhibition against the specific binding.
The nuclear extract fraction was prepared as follows.
HL60 cells (5×10^8) were suspended in 15 ml of solution A (sodium phosphate (pH7.4): 5 mM, monothioglycerol: 10 mM, glycerol: 10% (v/v), phenylmethylsulfonyl fluoride (PMSF): 1 mM, aprotinin: 10 μg/ml, and leupeptin: 25 μg/ml). The obtained suspension was homogenized by the use of a homogenizer and centrifuged to remove the resulting supernatant. The sediment thus formed was suspended in 15 ml of solution B (Tris-HCl(pH8.5): 10 mM, monothioglycerol: 10 mM, glycerol: 10% (v/v), PMSF: 1 mM, aprotinin: 10 μg/ml, leupeptin: 25 μg/ml, and KCl: 0.8 M). The obtained suspension was allowed to stand at 4° C. for one hour, and subjected to ultracentrifugation (100,000×g, 4° C., 1 hr). The obtained supernatant was stored as the nuclear extract fraction in a frozen state at −80° C. until the use (METHODS IN ENZYMOLOGY, 189, 248).
The receptor binding assay was conducted as follows.
180 μl of the above fraction and 10 μl of a dilution of all-trans retinoic acid or a test compound were added to each well of a 96-well plate made of polypropylene, followed by the addition of 10 μl of 10 nM^3H-all-trans retinoic acid. The resulting plate was allowed to stand at 4° C. for 16 hours. A solution containing 3% of charcoal and 0.3% of dextran was added to the resulting reaction mixture. The mixture thus obtained was centrifuged to remove free ^3H-all-trans retinoic acid. The radioactivity of the resulting supernatant was determined by the use of a scintillation counter. The specific binding of ^3H-all-trans retinoic acid for RAR was determined by assuming the radioactivity found when 200 times as much all-trans retinoic acid was added to be the non-specific binding and subtracting it from the radioactivity determined above. The compounds which will be described below inhibited the binding of ^3H-all-trans retinoic acid dependently on the concentration.

With `CC(/C=C/C(C)=C/c1ccc2c(c1)CCCN2C(C)C)=C\C(=O)O` [Example 4, (E,E,E)-7-[1-(1-methylethyl)-1,2,3,4-tetrahydroquinolin-6-yl]-3,6-dimethyl-hepta-2,4,6-trienoic acid], the results for the IC50 (with HL60 cells; in data set [1]) were 74 nM and 20 nM, respectively.

For the compound `CC(/C=C/C(F)=C(/C)c1ccc2c(c1)CCCN2C(C)C)=C\C(=O)O` [Example 5, (E,E,E)-7-[1-(1-methylethyl)-1,2,3,4-tetrahydroquinolin-6-yl]-6-fluoro-3-methyl-octa-2,4,6-trienoic acid], the half-maximal inhibitory concentration (IC50) in the data set on HL60 cells stood at 39 nM; in data set [1], 5.4 nM.

For the compound `COC(=O)/C=C(C)/C=C/C(F)=C(/C)c1ccc2c(c1)C(C)CCN2C(C)C` (stereo not shown) [Example 8, Methyl (E,E,E)-7-[1-(1-methylethyl)-4-methyl-1,2,3,4-tetrahydroquinolin-6-yl]-6-fluoro-3-methyl-octa-2,4,6-trienoate], the concentration for half-maximal inhibition (IC50) with HL60 cells is 470 nM; in data set [1], 17 nM.

For `CC(/C=C/C(F)=C(/C)c1ccc2c(c1)C(C)CCN2C(C)C)=C\C(=O)O` (stereo not shown) [Example 9, (E,E,E)-7-[1-(1-Methylethyl)-4-methyl-1,2,3,4-tetrahydroquinolin-6-yl]-6-fluoro-3-methyl-octa-2,4,6-trienoic acid], the concentration for half-maximal inhibition (IC50) is 880 nM in the data set with HL60 cells and above 50 nM in data set [1].

As to `CCOC(=O)/C(F)=C(/C)c1ccc2c(c1)CC(C)CN2C(C)C` (stereo not shown) [Example 13, Ethyl (E)-3-[1-(1-methylethyl)-3-methyl-1,2,3,4-tetrahydroquinolin-6-yl]-2-fluoro-2-butenoate], the values for the half-maximal inhibitory concentration (IC50) (in the data set with HL60 cells; in data set [1]) were 29 nM and 12.5 nM, respectively.

Take `COC(=O)/C=C(C)/C=C/C(F)=C(/C)c1ccc2c(c1)CC(C)CN2C(C)C` (stereo not shown) [Example 14, Methyl (E,E,E)-7-[1-(1-methylethyl)-3-methyl-1,2,3,4-tetrahydroquinolin-6-yl]-6-fluoro-3-methyl-octa-2,4,6-trienoate]: the 50% inhibitory concentration (IC50) in the data set with HL60 cells was 130 nM; in data set [1], 13 nM.

`CC1(C)CCC(C)(C)c2c1sc1c2-c2c(c(-c3ccc(C(=O)O)cc3)cn2Cc2cccnc2)CC1` [Example 210]: the melting point lay within 289 to 290 °C.
